# From article PMC8869358, “High-Throughput Chemical Screening and Structure-Based Models to Predict hERG Inhibition” (Biology, 2022)
# Structures can show the parent of a compound that is named as a salt.
# Target: hERG (Homo sapiens, UniProt Q12809)
# Experiment: cell-based
# Conditions: (-LOG10(IC50), µM)
# Sequence of hERG (Q12809 whole entry): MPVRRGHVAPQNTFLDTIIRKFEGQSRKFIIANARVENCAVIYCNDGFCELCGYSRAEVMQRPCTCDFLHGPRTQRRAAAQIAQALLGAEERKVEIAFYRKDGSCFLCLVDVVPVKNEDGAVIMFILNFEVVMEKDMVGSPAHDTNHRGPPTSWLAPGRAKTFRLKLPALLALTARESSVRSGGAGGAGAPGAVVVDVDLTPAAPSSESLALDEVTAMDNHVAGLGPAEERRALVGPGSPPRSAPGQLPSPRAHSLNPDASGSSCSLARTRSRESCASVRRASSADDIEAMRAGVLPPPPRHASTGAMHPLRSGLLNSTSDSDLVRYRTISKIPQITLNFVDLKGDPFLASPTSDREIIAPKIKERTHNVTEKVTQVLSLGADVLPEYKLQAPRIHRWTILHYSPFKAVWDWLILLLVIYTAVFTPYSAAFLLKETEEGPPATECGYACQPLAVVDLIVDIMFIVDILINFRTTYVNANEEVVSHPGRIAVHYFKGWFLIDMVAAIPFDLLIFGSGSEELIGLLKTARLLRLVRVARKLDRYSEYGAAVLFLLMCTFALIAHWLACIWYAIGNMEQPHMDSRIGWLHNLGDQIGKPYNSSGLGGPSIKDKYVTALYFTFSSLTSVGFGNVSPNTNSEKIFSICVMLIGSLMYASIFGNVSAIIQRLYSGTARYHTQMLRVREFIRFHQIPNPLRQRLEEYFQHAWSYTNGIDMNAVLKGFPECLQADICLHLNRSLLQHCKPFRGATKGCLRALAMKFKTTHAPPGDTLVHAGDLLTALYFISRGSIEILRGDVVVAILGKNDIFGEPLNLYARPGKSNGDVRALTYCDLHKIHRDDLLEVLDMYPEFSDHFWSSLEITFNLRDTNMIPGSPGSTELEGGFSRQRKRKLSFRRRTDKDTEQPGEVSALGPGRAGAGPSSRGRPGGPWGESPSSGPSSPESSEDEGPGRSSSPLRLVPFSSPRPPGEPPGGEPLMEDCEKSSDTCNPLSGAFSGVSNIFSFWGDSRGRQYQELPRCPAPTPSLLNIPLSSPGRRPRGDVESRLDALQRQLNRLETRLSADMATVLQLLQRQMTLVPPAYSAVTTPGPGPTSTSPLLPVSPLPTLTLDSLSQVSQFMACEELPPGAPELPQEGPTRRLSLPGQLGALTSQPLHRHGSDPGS
row,SMILES,IC50 [µM]
1,"COc1ccc2[nH]cc(CCN(C(C)C)C(C)C)c2c1 [5-Methoxy-N,N-diisopropyltryptamine hydrochloride]",25.2
2,Cc1cc(C(C)(C)C)c(O)c(C(C)(C)C)c1 [Butylated hydroxytoluene],20.7
3,COc1ccc(S(=O)(=O)N2C(=O)[C@@](c3ccccc3OC)(N3C[C@H](O)C[C@H]3C(=O)N(C)C)c3cc(Cl)ccc32)c(OC)c1 [Nelivaptan],54.9
4,"c1ccc(Nc2ccc(Nc3ccccc3)cc2)cc1 [N,N'-Diphenyl-p-phenylenediamine]",41
5,O=C(NC(=O)c1c(F)cccc1F)Nc1ccc(Oc2ccc(C(F)(F)F)cc2Cl)cc1F [Flufenoxuron],37.4
6,BrC(Br)C(Br)(Br)Br [Pentabromoethane],49.3
7,COc1cc(N)c(Cl)cc1C(=O)NC1CCN(Cc2ccccc2)CC1 [Clebopride maleate],15.7
8,Cc1ccc(O)c(-n2nc3ccccc3n2)c1 [2-(2H-Benzotriazol-2-yl)-4-methylphenol],36
9,OC1(c2ccc(Cl)c(C(F)(F)F)c2)CCN(CCCC(c2ccc(F)cc2)c2ccc(F)cc2)CC1 [Penfluridol],0.239
10,CCc1nn(C)c(C(=O)NCc2ccc(C(C)(C)C)cc2)c1Cl [Tebufenpyrad],24.5
11,O=C(OCCOCCO)c1ccccc1Nc1cccc(C(F)(F)F)c1 [Etofenamate],13.4
12,CCN1CCCC1CNC(=O)C(O)(c1ccccc1)c1ccccc1 (stereo not drawn) [Epicainide],19.7
13,CS/C(C)=N/OC(=O)N(C)SN(C)C(=O)O/N=C(\C)SC [Thiodicarb],43.6
14,CC(C)(COC(=O)c1ccccc1)COC(=O)c1ccccc1 [Neopentyl glycol dibenzoate],13.8
15,FC(F)(F)c1cccc(C2=CCN(CCc3ccc4ccccc4c3)CC2)c1 [Xaliproden hydrochloride],1.76
16,N=C(N/N=C/c1ccc(Cl)cc1)N/N=C/c1ccc(Cl)cc1 [Robenidine],1.69
17,CCCCCOC(=O)COc1cc(N2C(=O)C3=C(CCCC3)C2=O)c(F)cc1Cl [Flumiclorac-pentyl],16.4
18,CC[C@@H]([C@H](C)O)n1ncn(-c2ccc(N3CCN(c4ccc(OC[C@@H]5CO[C@@](Cn6cncn6)(c6ccc(F)cc6F)C5)cc4)CC3)cc2)c1=O [Posaconazole],12.9
19,C[N+]1(CC2COC(c3ccccc3)(C3CCCCC3)O2)CCCCC1 (stereo not drawn) [Oxapium iodide],14
20,CCCN(CC)CC1COC2(CCC(C(C)(C)C)CC2)O1 (stereo not drawn) [Spiroxamine],34.7
21,Cc1ccc(Cl)c(OCC(O)CNC(C)(C)C)c1 (stereo not drawn) [Bupranolol],20.1

row,SMILES,IC50 [µM]
1,CCCC[n+]1ccc(C)cc1 [1-Butyl-4-methylpyridinium chloride],43.4
2,CCCCCCCCCCCCn1cc[n+](C)c1 [1-Dodecyl-3-methylimidazolium iodide],10.6
3,CCCN(CCC)c1c([N+](=O)[O-])cc(C(F)(F)F)c(N)c1[N+](=O)[O-] [Prodiamine],37.3
4,CCCCCCCCC=CCCCCCCCC1=NCCN1CCO [2-(8-Heptadecenyl)-2-imidazoline-1-ethanol],11.8
5,OC(c1ccc(Cl)cc1)(c1ccc(Cl)cc1)C(Cl)(Cl)Cl [Dicofol],30.9
6,CC(C)Oc1cc(-n2nc(C(C)(C)C)oc2=O)c(Cl)cc1Cl [Oxadiazon],44.7
7,Cc1ccc(O)c(C(=O)c2ccccc2)c1 [2-Hydroxy-5-methylbenzophenone],35
8,"CCc1cc(Cc2cc(CC)cc(C(C)(C)C)c2O)c(O)c(C(C)(C)C)c1 [2,2'-Methylenebis(ethyl-6-tert-butylphenol)]",17.4
9,CC(C)c1ccc2c(c1)CC[C@H]1[C@](C)(CN)CCC[C@]21C [Dehydroabietylamine acetate],13.3
10,CCC(COC(=O)c1cc(OC)c(OC)c(OC)c1)(c1ccccc1)N(C)C (stereo not drawn) [Trimebutine maleate],16.9
11,Cc1nc(-c2ccc3c(c2)CCN(CCC2CCC(NC(=O)/C=C/c4ccc(F)cc4)CC2)CC3)no1 (stereo not drawn) [SB413217A],1.02
12,CCC(=O)c1ccc2c(c1)N(CCCN(C)C)c1ccccc1S2 [Propionylpromazine hydrochloride],9.16
13,COc1ccc(CCN(C)CCCN2CCc3cc(OC)c(OC)cc3CC2=O)cc1OC [Zatebradine hydrochloride],10.1
14,"Oc1ccc(C(c2ccc(O)cc2)C(Cl)(Cl)Cl)cc1 [2,2-Bis(4-hydroxyphenyl)-1,1,1-trichloroethane]",54.9
15,CC[N+](CC)(CC)CCOC(=O)C(C1CCCC1)C1CCCC1 [Diponium bromide],9.52
16,Cl[C@H]1[C@H](Cl)[C@@H](Cl)[C@H](Cl)[C@@H](Cl)[C@H]1Cl [delta-Hexachlorocyclohexane],51.9
17,CCN(CC)C(=O)c1cc(S(=O)(=O)Cc2ccccc2)c(N2CCC(c3ccccc3)CC2)cc1N(CC)CCN(C)C [HMR1171 trifluoroacetate (1:1)],2.72
18,Cc1cc(O)c2ccccc2c1O [Menadiol],2.68
19,"CCCCCCCCCCCCCCCCCC[N+](C)(C)Cc1ccccc1 [N,N-Dimethyl-N-benzyl-N-octadecylammonium chloride]",4.41
20,CCCCCCCCCCCC[N+](C)(C)C [Dodecyltrimethylammonium bromide],21
21,CC(C)(C)C(O)(CCc1ccc(Cl)cc1)Cn1cncn1 (stereo not drawn) [Tebuconazole],21.9

row,SMILES,IC50 [µM]
1,"C#CCN(C)CCCOc1ccc(Cl)cc1Cl [N-Methyl-N-propargyl-3-(2,4-dichlorophenoxy)propylamine hydrochloride]",8.82
2,CCOC(=O)C1=NN(c2ccc(Cl)cc2Cl)C(C)(C(=O)OCC)C1 (stereo not drawn) [Mefenpyr-diethyl],46.2
3,"CC(C)(C)C1(CCc2ccc(Cl)cc2)CO1 (stereo not drawn) [2-(2-(4-Chlorophenyl)ethyl)-2-(1,1-dimethylethyl)oxirane]",23.2
4,CC/C=C\CCOC(=O)c1ccccc1O [(3Z)-Hex-3-en-1-yl salicylate],34.7
5,CN(C)CCOC(c1ccccc1)c1ccc(Br)cc1 (stereo not drawn) [Bromodiphenhydramine],4.09
6,CCCCCCCCCC[N+](C)(CCCCCCCCCC)CCC[Si](OC)(OC)OC [Didecylmethyl(3-(trimethoxysilyl)propyl)ammonium chloride],2.65
7,CCOCn1c(-c2ccc(Cl)cc2)c(C#N)c(Br)c1C(F)(F)F [Chlorfenapyr],15.5
8,CCOC(=O)C(C)Oc1ccc(Oc2nc3ccc(Cl)cc3o2)cc1 (stereo not drawn) [Fenoxaprop-ethyl],30.9
9,CN1CCN(Cc2cc(-c3ccc4[nH]c(=O)oc4c3)co2)[C@@H](c2ccc(F)cc2)C1 [AVE8488],37.4
10,"O=C1C=CC(=O)N1c1ccccc1 [1-Phenyl-1H-pyrrole-2,5-dione]",50.9
11,O=C1c2c(O)ccc(Nc3ccc(CCO)cc3)c2C(=O)c2c([N+](=O)[O-])ccc(O)c21 [C.I. Disperse Blue 27],43.6
12,C=C(C)CN(CC)c1c([N+](=O)[O-])cc(C(F)(F)F)cc1[N+](=O)[O-] [Ethalfluralin],36
13,c1ccc(Nc2cccc3ccccc23)cc1 [N-Phenyl-1-naphthylamine],33.4
14,"O=C(N[C@@H]1N=C(c2ccccc2F)c2cccc3c2N(CC3)C1=O)c1cc2ccccc2[nH]1 [N-[(3R)-1-(2-Fluorophenyl)-4-oxo-3,4,6,7-tetrahydro[1,4]diazepino[6,7,1-hi]indol-3-yl]-1H-indole-2-carboxamide]",8.82
15,CCCCCCCC[S+]([O-])C(C)Cc1ccc2c(c1)OCO2 (stereo not drawn) [Piperonyl sulfoxide],38.2
16,CCCCCCCC(=O)Oc1c(Br)cc(C#N)cc1Br [Bromoxynil octanoate],26.4
17,"CC(C)COC(=O)COc1ccc(Cl)cc1Cl [2,4-D-isobutyl]",43.6
18,CCCCCCCCCCCCn1cc[n+](C)c1 [1-Dodecyl-3-methylimidazolium hexafluorophosphate],4.2
19,O=C(C=Cc1ccccc1)OCCc1ccccc1 [Phenethyl cinnamate],36
20,CC(Cc1ccccc1)NCCCCl (stereo not drawn) [Mefenorex],16.3
21,"CCN(CCN)c1cccc(C)c1 [N-Ethyl-N-(3-methylphenyl)ethane-1,2-diamine]",49

row,SMILES,IC50 [µM]
1,CCC(Cc1ccccc1)(C(=O)c1ccc(N2CCOCC2)cc1)N(C)C (stereo not drawn) [2-Benzyl-2-(dimethylamino)-1-[4-(morpholin-4-yl)phenyl]butan-1-one],19.5
2,CN(C)S(=O)(=O)N(SC(F)(Cl)Cl)c1ccccc1 [Dichlofluanid],17.4
3,C[C@@H]1CC[C@H]2C(C)(C)[C@H]3C[C@@]12CC[C@@]3(C)O [(+)-Cedrol],43.6
4,"CC(CC(C#N)(c1ccccc1)c1ccccc1)N(C)C (stereo not drawn) [4-Dimethylamino-2,2-diphenylvaleronitrile]",29.6
5,CCOP(=S)(OCC)SCCSCC [Disulfoton],43.3
6,"Clc1ccccc1-c1ccccc1Cl [2,2'-Dichlorobiphenyl]",17.6
7,CCOP(=S)(OCC)Oc1ccc2c(C)c(Cl)c(=O)oc2c1 [Coumaphos],40.4
8,CCCCCCCCOCCCN [3-(Octyloxy)propan-1-amine],43.6
9,O=C1c2ccccc2S(=O)(=O)N1CCCCN1CCN(c2ncccn2)CC1 [Ipsapirone],16.9
10,O=C(Oc1ccccc1)c1ccc2ccccc2c1O [Phenyl 1-hydroxy-2-naphthoate],49
11,Cc1nccn1-c1ccc(Sc2cccc(C3(C(N)=O)CCOCC3)c2)cc1 [CJ-013610],47.1
12,COc1cccc(-c2ccc(/C=C\CN3CCCCCC3)cc2Cl)c1 [SR125047],1.48
13,"O=S(=O)(Oc1ccc(Cl)cc1Cl)c1ccccc1 [2,4-Dichlorophenyl benzenesulfonate]",51.8
14,CCCCCCCCCCCCCC[P+](CCCCCC)(CCCCCC)CCCCCC [Trihexyltetradecylphosphonium hexafluorophosphate],0.47
15,CCOC(=O)Nc1ccc(NCc2ccc(F)cc2)nc1N [Flupirtine maleate],19
16,CCC(C)Nc1c([N+](=O)[O-])cc(C(C)(C)C)cc1[N+](=O)[O-] (stereo not drawn) [Butralin],23.6
17,CC1=C(C(=O)OC(C)C)C(c2cccc([N+](=O)[O-])c2)C(C(=O)OC2CN(C(c3ccccc3)c3ccccc3)C2)=C(N)N1 (stereo not drawn) [Azelnidipine],8.99
18,CN(C)c1ccc(C(=C2C=CC(=[N+](C)C)C=C2)c2ccc(N(C)C)cc2)cc1 [Gentian Violet],2.79
